From US20260216184A1 (SHENZHEN NEWDEL BIOTECH CO., LTD., priority 2023, published 2026)
Blank lines part the entries; values can stand above or below the molecule they belong to.

Experiments:
EPHA6 = target: T1, EPHA6 (Homo sapiens, UniProt Q9UF33); experiment: EPHA6 enzyme activity assay (HTRF); type: biochemical; conditions: ATP 25 μM; read-out: IC50 against EPHA6
T1 sequence (Q9UF33 23-1036): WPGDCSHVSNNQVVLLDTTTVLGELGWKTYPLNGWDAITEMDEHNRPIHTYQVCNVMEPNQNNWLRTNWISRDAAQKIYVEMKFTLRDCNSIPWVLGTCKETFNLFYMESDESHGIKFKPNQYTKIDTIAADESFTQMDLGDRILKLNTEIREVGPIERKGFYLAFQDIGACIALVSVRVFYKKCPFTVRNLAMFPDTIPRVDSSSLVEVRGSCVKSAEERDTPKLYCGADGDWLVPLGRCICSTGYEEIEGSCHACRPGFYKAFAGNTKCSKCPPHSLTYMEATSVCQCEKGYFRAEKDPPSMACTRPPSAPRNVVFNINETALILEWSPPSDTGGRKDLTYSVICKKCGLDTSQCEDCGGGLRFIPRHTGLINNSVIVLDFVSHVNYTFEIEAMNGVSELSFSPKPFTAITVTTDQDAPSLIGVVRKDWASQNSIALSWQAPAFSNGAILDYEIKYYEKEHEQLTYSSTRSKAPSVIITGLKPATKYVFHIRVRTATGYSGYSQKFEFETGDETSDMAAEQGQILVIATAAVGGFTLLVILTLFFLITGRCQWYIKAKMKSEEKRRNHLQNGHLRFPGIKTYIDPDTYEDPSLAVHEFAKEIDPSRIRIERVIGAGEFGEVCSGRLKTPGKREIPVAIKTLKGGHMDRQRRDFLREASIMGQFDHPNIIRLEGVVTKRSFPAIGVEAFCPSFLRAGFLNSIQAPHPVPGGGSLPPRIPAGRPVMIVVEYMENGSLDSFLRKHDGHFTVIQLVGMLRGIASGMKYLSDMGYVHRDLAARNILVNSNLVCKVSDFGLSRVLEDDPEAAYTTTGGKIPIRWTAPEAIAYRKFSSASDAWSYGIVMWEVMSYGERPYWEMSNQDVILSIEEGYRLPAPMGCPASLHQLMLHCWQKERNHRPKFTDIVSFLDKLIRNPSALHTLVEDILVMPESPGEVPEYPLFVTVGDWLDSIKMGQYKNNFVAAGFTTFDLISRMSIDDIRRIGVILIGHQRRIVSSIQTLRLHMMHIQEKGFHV
Method: Replicate wells were set for the assay. 2× kinase solution was prepared with 1× kinase reaction buffer (5× buffer, 5 mM MgCl2, 1 mM DTT, H2O, and 1 mM MnCl2). 2.5 μL of EPHA6 (0.5 nM, 08-125, Carna) solution was transferred to a 384 reaction plate.

[1] = test system: UUO-induced renal fibrosis; experiment: UUO-induced renal fibrosis in mice, H&E staining of kidney tissues; type: in vivo, C57 mice; conditions: 10 days
Source text: (§1) Modeling a UUO model mouse: C57 mice (male, 8 weeks old, weighing 20-25 g) were purchased from Zhejiang Vital River Laboratory Animal Technology Co., Ltd. After anesthesia, a 1-2 cm incision was made in the left kidney region of the abdomen, and the intestinal tract was carefully removed to expose the ureter. The ureter was ligated with double lines and cut off at the middle position of the double-line ligation. The intestinal tract was recovered, and the incision was stitched.
(§2) All animals were administered orally on the day of surgery. Animals in the sham group and vehicle group were administered a test drug vehicle (5% DMSO+5% Tween80+20% PEG400+70% H2O). All administration solutions were freshly prepared before use. The experiment ended 10 days after the administration.
(§3) The preparation method for the positive drug included weighing pirfenidone into a mortar, adding a small amount of 0.5% CMC-Na, grinding the mixture fully and uniformly, supplementing the mixture with the remaining 0.5% CMC-Na, and mixing well for use.
(§4) At the end of the experiment, the left kidney was taken and placed in 4% PFA for fixation. The kidney was conventionally sectioned and stained 24 h after the fixation.

[2] = test system: UUO-induced renal fibrosis; experiment: UUO-induced renal fibrosis in mice, Masson staining of collagen fibers in kidney tissues; type: in vivo, C57 mice
Source text: as §1, §2, §3, §4

α-SMA = experiment: UUO-induced renal fibrosis in mice, α-SMA immunohistochemical staining of kidney tissues; type: in vivo, C57 mice
Source text: as §1, §2, §3, §4

F4/80 (macrophages) = experiment: UUO-induced renal fibrosis in mice, F4/80 immunohistochemical staining of kidney tissues; type: in vivo, C57 mice; conditions: 10 days
Source text: as §1, §2, §3, §4

[3] = Relative body weight change in UUO model mice; type: in vivo, C57 mice; conditions: Group 7, 250 mg/kg BID P.O
Source text: as §1, §2, §3
Relative body weight change=body weight on day n/body weight on day 0×100%

- IC50 (EPHA6): 12.8 nM
SMILES: Cc1c(C#Cc2cnc3ccc(N4CCC(O)CC4)nn23)cccc1C(=O)Nc1cc(Cl)cc(C(F)(F)F)c1 [compound 1, N-(3-chloro-5-(trifluoromethyl)phenyl)-3-((6-(4-hydroxypiperidin-1-yl)imidazo[1,2-b]pyridazin-3-yl)ethynyl)-2-methylbenzamide]
- H&E staining of kidney tissue, compared with the vehicle group ([1]; compound 1 dose groups (3, 10, 30, 100 mg/kg QD P.O)): reduced tubular atrophy, a looser glomerular structure, and no significant thickening of tubular basement membrane
- Masson staining positive area, quantitative analysis ([2]; 3 mpk QD P.O, 10 days (FIG. 3B)): significantly reduce the Masson staining positive area
- Masson staining, collagen deposition in the renal tubular spaces ([2]; 3 mpk, 10 mpk, 30 mpk and 100 mpk groups, QD P.O, 10 days (FIG. 3A)): significant effect in relieving the collagen deposition
- onset dose for treating renal fibrosis ([2]; UUO mice, QD P.O, 10 days): 3 mg/kg
- α-SMA positive area compared with the vehicle group (α-SMA; 3 mpk QD P.O, 10 days, P<0.05 (FIG. 4B)): significantly reduced
- levels of α-SMA compared with the vehicle group (α-SMA; 10 mpk, 30 mpk and 100 mpk QD P.O, 10 days (FIG. 4B)): significantly reduced
- expression levels of macrophages (F4/80) compared with the vehicle group (F4/80 (macrophages); 30 mpk and 100 mpk QD P.O): significantly reduced
- expression levels of macrophages (F4/80) compared with the vehicle group (F4/80 (macrophages); each dose group (3, 10, 30, 100 mpk QD P.O)): reduced expression levels of macrophages

SMILES: Cc1ccc(=O)n(-c2ccccc2)c1 [pirfenidone]
- Relative body weight change ([3]; day 0): 100 ± 0.00%
- Relative body weight change ([3]; day 1): 90.41 ± 0.25%
- Relative body weight change ([3]; day 2): 89.78 ± 0.81%
- Relative body weight change ([3]; day 3): 88.90 ± 0.75%
- Relative body weight change ([3]; day 4): 90.19 ± 0.85%
- Relative body weight change ([3]; day 5): 91.53 ± 0.62%
- Relative body weight change ([3]; day 6): 91.83 ± 0.85%
- Relative body weight change ([3]; day 7): 89.72 ± 0.68%
- Relative body weight change ([3]; day 8): 90.68 ± 0.85%
- Relative body weight change ([3]; day 9): 93.04 ± 0.66%
- Relative body weight change ([3]; day 10): 96.16 ± 1.10%
- H&E staining of kidney tissue, compared with the vehicle group ([1]; 250 mg/kg BID P.O): a looser glomerular structure and no significant material deposition in the renal tubular spaces
